Test results taken from patent publication US20150284360A1, “AMIDE DERIVATIVES OF ANILINE-RELATED COMPOUNDS AND COMPOSITIONS THEREOF” (C&C BIOPHARMA, LLC, priority 2014, published 2015).

Tests used:
[1] = Solubility of a compound in water; type: physicochemical; settings: compound added until saturated
Method: Solubility of a compound was obtained by adding the compound into water of known volume (e.g. 1 mL) until saturated, measuring the amount of the compound added, and obtaining the solubility of the compound in water (mg/mL) (Table 9).

[2] = In vitro conversion of prodrug Lys-CC30.2HCl to parent drug CC30 in rat plasma (HPLC-MS); type: in vitro ADME; settings: rat plasma
Method: Lys-CC30.2HCl (2.53 mg) was dissolved in 200 μl of water to obtain an aqueous solution concentration of 12.6 mg/ml. 4 μl of the Lys-CC30.2HCl solution was thoroughly mixed with 100 μl of rat plasma. This mixture was divided into 10 aliquots (10 μl) placed in 1.5 ml tubes. One tube was placed on ice and was used as the 0 time point. The other 9 samples were placed in an incubator at 37° C. At 5, 10, 30, 60, 120, and 240 minutes, a tube was taken out from incubation and placed on ice to stop or slow down the reaction. The samples were diluted with water (50-fold), mixed, and pelleted by centrifugation at 4° C. and 14,000 rpm for 5 min. The supernatant (˜200-300 μl) was used for HPLC-MS analysis. The % conversion was calculated by dividing the peak area of the parent drug by the peak area of the prodrug at time 0, and then multiplying by 100 (Table 10).
After 60 minutes of incubation, almost half (44.7%) of the Lys-CC30.2HCl prodrug converted to CC30 (Table 10).

[3] = In vivo conversion of prodrug Lys-CC30.2HCl to parent drug CC30 in a rat after intravenous administration (plasma, HPLC-MS); design: species or system Sprague-Dawley rat; settings: for HPLC-MS Peak Area of Prodrug, Lys-CC30•2HCl in the rat: rat plasma, Lys-CC30.2HCl 2 mg/kg intravenous
Method: A Male Sprague-Dawley rat weighing 200-220 g was used to study the pharmacokinetics of the prodrug Lys-CC30.2HCl. Food was prohibited for 12 hours before the experiment, but water was freely available. Blood samples (0.2 ml) were collected through orbital venous plexus blood into heparinized 1.5 ml polyethene tubes at 0, 2, 5, 10, 15, 20, 30, 45 and 60 minute time points after the intravenous administration of Lys-CC30.2HCl (2 mg/kg). The samples were immediately centrifuged at 3000 g for 10 minutes. The plasma obtained (100 μl) was stored at −20° C. until analyzed. Plasma Lys-CC30.2HCl and parent drug CC30 concentrations in the collected blood samples were analyzed by HPLC-MS.
The parent drug was detected in the rat for at least 60 minutes, whereas the prodrug was no longer detected after 20 minutes (Table 11)(FIG. 10B).

[4] = Cyclization in simulated gastric fluid (SGF), acidic condition; type: physicochemical; settings: SGF pH=1.3 with pepsin, 37° C., 4 hours
Method: Simulated gastric fluid (SGF) was prepared by thoroughly mixing diluted hydrochloric acid (16.4 ml), water (800 ml), and 10 g of pepsin together, and then bring the volume up to 1000 ml with water (pH=1.3). Diluted hydrochloric acid was prepared by mixing 234 ml of concentrated hydrochloric acid with water to a final volume of 1000 ml. Lys-CC30.2HCl (2.53 mg) or CC30 were separately dissolved in 200 μl of water to obtain an aqueous solution concentration of 12.6 mg/ml. 4 μl of the Lys-CC30.2HCl solution and the CC30 solution were thoroughly mixed with 1 ml of SGF in separate tubes. The mixtures were placed in an incubator at 37° C. for 4 hours. The samples were diluted with water 50-fold, mixed, and pelleted by centrifugation at 4° C. and 14,000 rpm for 5 min. The supernatants (˜200-300 μl) were used for HPLC-MS analysis.

Cl.Cl.NCCCC[C@H](N)C(=O)Nc1ccccc1NC(=O)CCCCCC(=O)Nc1cccc(Br)c1 [Lys-CC30•2HCl]
Solubility in Water [1]: 750 mg/mL | % Conversion of prodrug to CC30 ([2]; 37° C., 5 min): 14.2% | HPLC-MS Peak Area of Prodrug, Lys-CC30•2HCl ([2]; 37° C., 5 min): 5900784 | % Conversion of prodrug to CC30 ([2]; 37° C., 10 min): 18.3% | HPLC-MS Peak Area of Prodrug, Lys-CC30•2HCl ([2]; 37° C., 10 min): 5623041 | % Conversion of prodrug to CC30 ([2]; 37° C., 30 min): 33.0% | HPLC-MS Peak Area of Prodrug, Lys-CC30•2HCl ([2]; 37° C., 30 min): 5199304 | % Conversion of prodrug to CC30 ([2]; 37° C., 60 min): 44.7% | HPLC-MS Peak Area of Prodrug, Lys-CC30•2HCl ([2]; 37° C., 60 min): 3678701 | % Conversion of prodrug to CC30 ([2]; 37° C., 60 min, listed as Lys-CC30.2HCl): 44.7% | % Conversion of prodrug to CC30 ([2]; 37° C., 120 min): 69.2% | HPLC-MS Peak Area of Prodrug, Lys-CC30•2HCl ([2]; 37° C., 120 min): 921181 | % Conversion of prodrug to CC30 ([2]; 37° C., 240 min): 71.8% | HPLC-MS Peak Area of Prodrug, Lys-CC30•2HCl ([2]; 37° C., 240 min): 498331 | HPLC-MS Peak Area of Prodrug, Lys-CC30•2HCl ([2]; 37° C., time 0 min (on ice)): 6182672 | % Conversion of prodrug to CC30 ([2]; time 0 min, parent peak area / prodrug peak area at time 0 x 100): 10.0% | Time after which the prodrug was no longer detected in the rat ([3]; after Lys-CC30.2HCl 2 mg/kg intravenous): 20 min | Conversion in the rat to the parent drug CC30 (in words) ([3]; after injection of Lys-CC30.2HCl 2 mg/kg intravenous, time zero): immediately started converting | HPLC-MS Peak Area of Prodrug, Lys-CC30•2HCl in the rat ([3]; 0 min): 5199661 | HPLC-MS Peak Area of Prodrug, Lys-CC30•2HCl in the rat ([3]; 2 min): 2388965 | HPLC-MS Peak Area of Prodrug, Lys-CC30•2HCl in the rat ([3]; 5 min): 838012 | HPLC-MS Peak Area of Prodrug, Lys-CC30•2HCl in the rat ([3]; 10 min): 173555 | HPLC-MS Peak Area of Prodrug, Lys-CC30•2HCl in the rat ([3]; 15 min): 40200 | HPLC-MS Peak Area of Prodrug, Lys-CC30•2HCl in the rat ([3]; 20 min): 8674 | Formation of cyclized product (in words) [4]: No similarly cyclized product was formed
